Experimental data taken from article PMC3466212, “Novel AChE Inhibitors for Sustainable Insecticide Resistance Management” (PLoS ONE, 2012).

The compounds below were run against T1, G119S AChE1 (Culex pipiens, UniProt Q86GC8, G247S) (assay: biochemical). Details: recombinant OP-insensitive G119S C. pipiens AChE1; 15 min incubation; acetylthiocholine; read-out: IC50 G119S.
T1 construct: made in house; host or cells: Drosophila S2 cells
Assay type: biochemical
Experimental: Production of C. pipiens WT and mutated AChE1s in Drosophila S2 cells was already described. The chemical library (ChemBridge, 3,000 compounds) screening was performed in duplicate on G119S recombinant AChE1. Chemicals were made soluble in ethanol or dimethylsulphoxide (DMSO), and then diluted at 300 µM in ethanol for storage. […] PTF analogs were analyzed in dose-response experiments (10-fold serial dilutions from 3 mM to 30 nM), using recombinant WT and G119S AChE1 or mosquito head extracts (heads cut from frozen mosquitoes, homogenized in 400 µl PB containing 1% Triton X-100 and cleared by centrifugation at 9,000×g for 3 min). Depending on compound availability, two to five replicates were performed with distinct batches of enzyme. […] IC50 was estimated by nonlinear least square regression. IC50 was also measured on AChE1 from susceptible and resistant mosquito larvae extracts.

| Compound | IC50 [µM] |
| --- | --- |
| Cc1cccc(N2C(=O)C(=Cc3ccc(C)o3)C(=O)NC2=S)c1 [PTF-25] | 28.6 |
| COc1cccc(N2C(=O)C(=Cc3ccc(C)o3)C(=O)NC2=S)c1 [PTF-29] | 33.5 |
| Cc1ccc(C=C2C(=O)N(C)C(=O)N(C)C2=O)o1 [PTF-39] | 7.6 |

What follows are compounds tested against T2, F290V AChE1 (Culex pipiens, UniProt Q86GC8, F416V) (assay: not given). Details: F290V OP-insensitive AChE1.
T2 construct: made in house; host or cells: Drosophila S2 cells
Assay type: biochemical
Experimental: (§1) Production of C. pipiens WT and mutated AChE1s in Drosophila S2 cells was already described. The chemical library (ChemBridge, 3,000 compounds) screening was performed in duplicate on G119S recombinant AChE1. Chemicals were made soluble in ethanol or dimethylsulphoxide (DMSO), and then diluted at 300 µM in ethanol for storage. Compounds (30 µM final concentration) were incubated for 15 min at room temperature with 100 µl of G119S recombinant AChE1 then 100 µl of substrate (acetylthiocholine, 1.6 mM, Sigma-Aldrich) was added and the residual activity was quantified by measuring the optical density at 412 nm, as described by Ellman et al.. PTF analogs were analyzed in dose-response experiments (10-fold serial dilutions from 3 mM to 30 nM), using recombinant WT and G119S AChE1 or mosquito head extracts (heads cut from frozen mosquitoes, homogenized in 400 µl PB containing 1% Triton X-100 and cleared by centrifugation at 9,000×g for 3 min). Depending on compound availability, two to five replicates were performed with distinct batches of enzyme. […] IC50 was estimated by nonlinear least square regression. IC50 was also measured on AChE1 from susceptible and resistant mosquito larvae extracts.
(§2) a numbers refer to Table S1
(§3) b IC50 values were determined from regression analysis of log-concentrations versus

| Compound | IC50 [µM] |
| --- | --- |
| Cc1cccc(N2C(=O)C(=Cc3ccc(C)o3)C(=O)NC2=S)c1 [PTF-25] | 39.3 |
| COc1cccc(N2C(=O)C(=Cc3ccc(C)o3)C(=O)NC2=S)c1 [PTF-29] | 37.4 |
| Cc1ccc(C=C2C(=O)N(C)C(=O)N(C)C2=O)o1 [PTF-39] | 13.9 |

These compounds were tested against T3, F331W AChE1 (Culex pipiens, UniProt Q86GC8, F457W) (assay: not given). Details: F331W OP-insensitive AChE1.
T3 construct: made in house; host or cells: Drosophila S2 cells
Assay type: biochemical
Experimental: as §1, §2, §3

| Compound | IC50 [µM] |
| --- | --- |
| Cc1cccc(N2C(=O)C(=Cc3ccc(C)o3)C(=O)NC2=S)c1 [PTF-25] | 31.9 |
| COc1cccc(N2C(=O)C(=Cc3ccc(C)o3)C(=O)NC2=S)c1 [PTF-29] | 11.2 |
| Cc1ccc(C=C2C(=O)N(C)C(=O)N(C)C2=O)o1 [PTF-39] | 8.7 |

Each compound was assayed on C. pipiens Slab strain larvae (assay: Larval bioassay, Slab strain (OP-susceptible)). Details: C. pipiens OP-susceptible ace-1 S/S larvae; four to five replicates.
Source text: (§4) Three C. pipiens strains were used: the susceptible reference Slab strain, homozygous for ace-1 ^S [39], the resistant reference SR strain, carrying the genetical background of Slab but homozygous for the G119S mutation, allele ace-1 ^R [21] and the Ducos strain, carrying the genetical background of Slab but homozygous for an ace-1 duplication, with one ace-1^S and ace-1^R copy in tandem. Culex pipiens heterozygous larvae (Slab×SR) were obtained by crossing Slab males and SR females. Two A. gambiae reference strains (S molecular form) were used: the susceptible strain Kisumu, homozygous for ace-1 ^S, collected in Kenya in 1953 and maintained since then under laboratory conditions and the resistant Acerkis strain, carrying the genetical background of Kisumu but homozygous for an ace-1^R allele from a population collected in Bobo-Dioulasso, Burkina Faso [41].
(§5) Insecticidal activity was determined by performing bioassays on fourth-instar larvae as described in [42]. Each compound was dissolved in ethanol. Propoxur (CX) and chlorpyrifos (OP) were used as references. For each compound, we first tested mortality after a 24-hour exposure at 300 µM. […] Mortality data were analyzed by the log-probit program. This program takes into account natural mortality and provides lethal doses (LD) and slopes for each mortality line; it also computes resistance ratios (RR) for each LD, with 95% confidence intervals.

| Compound | LD50 Slab [µM] |
| --- | --- |
| CCOP(=S)(OCC)Oc1nc(Cl)c(Cl)cc1Cl [Chlorpyrifos, reference compound] | 0.00019 |
| Cc1cccc(N2C(=O)C(=Cc3ccc(C)o3)C(=O)NC2=S)c1 [PTF-25] | 160.8 |
| COc1cccc(N2C(=O)C(=Cc3ccc(C)o3)C(=O)NC2=S)c1 [PTF-29] | 946.0 |
| Cc1ccc(C=C2C(=O)N(C)C(=O)N(C)C2=O)o1 [PTF-39] | 576.0 |

Same assay, conditions: fourth-instar larvae, 24 hours exposure, 300 µM

| Compound | Mortality at 300 µM, Slab [%] |
| --- | --- |
| Cc1cccc(N2C(=O)C(=Cc3ccc(C)o3)C(=O)NC2=S)c1 [PTF-25] | 32 |
| COc1cccc(N2C(=O)C(=Cc3ccc(C)o3)C(=O)NC2=S)c1 [PTF-29] | 27 |
| Cc1ccc(C=C2C(=O)N(C)C(=O)N(C)C2=O)o1 [PTF-39] | 29 |

What follows are compounds tested on C. pipiens SR strain larvae (assay: Larval bioassay, SR strain (OP-resistant)). Details: C. pipiens OP-resistant ace-1 R/R larvae.
Source text: Three C. pipiens strains were used: the susceptible reference Slab strain, homozygous for ace-1 ^S [39], the resistant reference SR strain, carrying the genetical background of Slab but homozygous for the G119S mutation, allele ace-1 ^R [21] and the Ducos strain, carrying the genetical background of Slab but homozygous for an ace-1 duplication, with one ace-1^S and ace-1^R copy in tandem. Culex pipiens heterozygous larvae (Slab×SR) were obtained by crossing Slab males and SR females.
Insecticidal activity was determined by performing bioassays on fourth-instar larvae as described in [42]. Each compound was dissolved in ethanol. Propoxur (CX) and chlorpyrifos (OP) were used as references. For each compound, we first tested mortality after a 24-hour exposure at 300 µM. […] Mortality data were analyzed by the log-probit program.

| Compound | LD50 SR [µM] |
| --- | --- |
| CCOP(=S)(OCC)Oc1nc(Cl)c(Cl)cc1Cl [Chlorpyrifos, reference compound] | 0.021 |
| Cc1cccc(N2C(=O)C(=Cc3ccc(C)o3)C(=O)NC2=S)c1 [PTF-25] | 70.1 |
| COc1cccc(N2C(=O)C(=Cc3ccc(C)o3)C(=O)NC2=S)c1 [PTF-29] | 398.8 |
| Cc1ccc(C=C2C(=O)N(C)C(=O)N(C)C2=O)o1 [PTF-39] | 200.0 |

Same assay, conditions: fourth-instar larvae, 24 hours exposure, 300 µM

| Compound | Mortality at 300 µM, SR [%] |
| --- | --- |
| Cc1cccc(N2C(=O)C(=Cc3ccc(C)o3)C(=O)NC2=S)c1 [PTF-25] | 68 |
| COc1cccc(N2C(=O)C(=Cc3ccc(C)o3)C(=O)NC2=S)c1 [PTF-29] | 63 |
| Cc1ccc(C=C2C(=O)N(C)C(=O)N(C)C2=O)o1 [PTF-39] | 81 |

What follows are compounds tested on C. pipiens Ducos strain larvae (assay: Larval bioassay, Ducos strain (ace-1 duplication)). Details: C. pipiens OP-resistant ace-1 D (duplication) larvae.
Assay type: in vivo, Culex pipiens
Source text: as §4, §5

| Compound | LD50 Ducos [µM] |
| --- | --- |
| CCOP(=S)(OCC)Oc1nc(Cl)c(Cl)cc1Cl [Chlorpyrifos, reference compound] | 0.0022 |
| Cc1cccc(N2C(=O)C(=Cc3ccc(C)o3)C(=O)NC2=S)c1 [PTF-25] | 130.8 |
| COc1cccc(N2C(=O)C(=Cc3ccc(C)o3)C(=O)NC2=S)c1 [PTF-29] | 409.0 |
| Cc1ccc(C=C2C(=O)N(C)C(=O)N(C)C2=O)o1 [PTF-39] | 201.9 |

Each compound was assayed on C. pipiens F1 (SR×Slab) heterozygous larvae (assay: Larval bioassay, heterozygous F1 (SR×Slab)). Details: C. pipiens heterozygous ace-1 R/ace-1 S larvae.
Assay type: in vivo, Culex pipiens
Source text: as §4, §5

| Compound | LD50 F1 (SR×Slab) [µM] |
| --- | --- |
| CCOP(=S)(OCC)Oc1nc(Cl)c(Cl)cc1Cl [Chlorpyrifos, reference compound] | 0.0015 |
| Cc1cccc(N2C(=O)C(=Cc3ccc(C)o3)C(=O)NC2=S)c1 [PTF-25] | 60.0 |
| COc1cccc(N2C(=O)C(=Cc3ccc(C)o3)C(=O)NC2=S)c1 [PTF-29] | 105.1 |
| Cc1ccc(C=C2C(=O)N(C)C(=O)N(C)C2=O)o1 [PTF-39] | 110.0 |

These compounds were tested on A. gambiae Kisumu strain larvae (assay: Larval bioassay, Kisumu strain (OP-susceptible)). Details: A. gambiae OP-susceptible ace-1 S/S larvae.
Assay type: in vivo, Anopheles gambiae
Source text: as §4, §5

| Compound | LD50 Kisumu [µM] |
| --- | --- |
| CCOP(=S)(OCC)Oc1nc(Cl)c(Cl)cc1Cl [Chlorpyrifos, reference compound] | 0.00095 |
| Cc1cccc(N2C(=O)C(=Cc3ccc(C)o3)C(=O)NC2=S)c1 [PTF-25] | 46.1 |
| COc1cccc(N2C(=O)C(=Cc3ccc(C)o3)C(=O)NC2=S)c1 [PTF-29] | 164.4 |

These compounds were tested on A. gambiae Acerkis strain larvae (assay: Larval bioassay, Acerkis strain (OP-resistant)). Details: A. gambiae OP-resistant ace-1 R/R larvae.
Assay type: in vivo, Anopheles gambiae
Source text: as §4, §5

| Compound | LD50 Acerkis [µM] |
| --- | --- |
| CCOP(=S)(OCC)Oc1nc(Cl)c(Cl)cc1Cl [Chlorpyrifos, reference compound] | 0.6 |
| Cc1cccc(N2C(=O)C(=Cc3ccc(C)o3)C(=O)NC2=S)c1 [PTF-25] | 12.6 |
| COc1cccc(N2C(=O)C(=Cc3ccc(C)o3)C(=O)NC2=S)c1 [PTF-29] | 67.7 |

These compounds were tested against T4, WT AChE1 (Culex pipiens, UniProt Q86GC8) (assay: not given). Details: read-out: Kic WT; dissociation constant of enzyme-inhibitor complex; five independent replicates.
Experimental: (§6) To identify inhibitors of G119S AChE1, we screened a 3,000-compound chemical library using an assay adapted to a microplate format, [26]. […] For simplification, these compounds will be termed from now as PTF (PyrimidineTrione Furan-substituted) and were classified depending on the substituted positions (Table S1).
(§7) WT and G119S recombinant AChE1s were incubated with 0.25 mM, 0.5 mM or 1 mM inhibitor. Residual activity of G119S (A and C) and WT (B and D) AChE1 was measured in the presence of various concentrations of PTF-20 and substrates. Enzymatic activity was analyzed using the graphical method developed by Dixon, representing reciprocal rates (1/v) (A and B) or reciprocal rates multiplied by substrate concentrations ([S]/v) (C and D) as a function of inhibitor concentration. (PDF) Click here for additional data file.
(§8) Table S3. Dissociation constants (Kic) of enzyme-inhibitor complexes.
as §2
(§9) b data were measured from five independent replicates.
(§10) c competitive inhibitor reference

| Compound | Ki [µM] |
| --- | --- |
| Cc1cccc(N2C(=O)C(=Cc3ccc(C)o3)C(=O)NC2=S)c1 [PTF-25] | 131 ± 3.1 |
| COc1cccc(N2C(=O)C(=Cc3ccc(C)o3)C(=O)NC2=S)c1 [PTF-29] | 17.1 ± 6.8 |
| Cc1ccc(C=C2C(=O)N(C)C(=O)N(C)C2=O)o1 [PTF-39] | 130 ± 9.2 |

The compounds below were run against T1, G119S AChE1 (assay: not given). Details: dissociation constant of enzyme-inhibitor complex; five independent replicates; read-out: Kic G119S.
Assay type: biochemical
Experimental: as §6
Reversibility was tested using a rapid dilution procedure. Residual activity of WT (white bars) and G119S (grey bars) AChE1 were measured after 15 min incubation in presence of inhibitors (striped bars) and are expressed as percentages of control activity. […] Assays were then diluted ten times and residual activity was measured (open bars). Means and standard errors for three independent experiments are shown. (PDF) Click here for additional data file.
as §7, §8, §2, §9, §10

| Compound | Ki [µM] |
| --- | --- |
| Cc1cccc(N2C(=O)C(=Cc3ccc(C)o3)C(=O)NC2=S)c1 [PTF-25] | 24.9 ± 0.6 |
| COc1cccc(N2C(=O)C(=Cc3ccc(C)o3)C(=O)NC2=S)c1 [PTF-29] | 8.9 ± 2.7 |
| Cc1ccc(C=C2C(=O)N(C)C(=O)N(C)C2=O)o1 [PTF-39] | 41.9 ± 2.3 |

The compounds below were run against T4, WT AChE1 (assay: AChE assay (Ellman), dose-response on recombinant WT AChE1). Details: recombinant wild-type C. pipiens AChE1; 15 min incubation; acetylthiocholine; read-out: IC50 WT.
Assay type: biochemical
Set-up: made in house; host or cells: Drosophila S2 cells
Experimental: as §1

| Compound | IC50 [µM] |
| --- | --- |
| Cc1cccc(N2C(=O)C(=Cc3ccc(C)o3)C(=O)NC2=S)c1 [PTF-25] | 442 |
| COc1cccc(N2C(=O)C(=Cc3ccc(C)o3)C(=O)NC2=S)c1 [PTF-29] | 118 |
| Cc1ccc(C=C2C(=O)N(C)C(=O)N(C)C2=O)o1 [PTF-39] | 74.3 |
